The test concerns SARS-CoV-2, USA-WA1/2020 strain. The class given is cell-based. Particulars: tested conc. 50%; for LRV (log reduction value): compared to the virus control; for Virus titer: lower limit of detection 0.67.

Where two headings read alike, the source gives them in different places.

Take `CCO` [Ethanol]: the “LRV (log reduction value)” value by setting is: (incubation time 15 seconds) over 4.0; (incubation time 30 seconds) over 3.83; (incubation time 60 seconds) over 4.0; (incubation time 5 minutes) over 3.83. The Virus titer runs as follows: (incubation time 15 seconds) <0.67 Log10 CCID50 of virus per 0.1 mL; (incubation time 30 seconds) <0.67 Log10 CCID50 of virus per 0.1 mL; (incubation time 60 seconds) <0.67 Log10 CCID50 of virus per 0.1 mL; (incubation time 5 minutes) <0.67 Log10 CCID50 of virus per 0.1 mL.

Values taken from patent publication US20220387479A1, “NOVEL POVIDONE-IODINE PHARMACEUTICAL PREPARATION AND USES THEREOF” (priority 2021, published 2022).
